ChEMBL document CHEMBL1201862, “PubChem BioAssay data set” (2004)
Active and inactive are the calls of the source.

Experiments:
[1] = target: Ion channel NompC (Danio rerio, UniProt Q7T1G6); experiment: Dose response cell-based high-throughput screening assay for agonists of the transient receptor potential channel N1 (TRPN1). [Related pubchem assays (depositor defined):AID1424, AID1448]; type: functional
[2] = target: T1, NADPH oxidase 1 (Homo sapiens, UniProt Q9Y5S8); experiment: Luminescence-based cell-based dose response assay to identify inhibitors of NADPH oxidase 1 (NOX1).; type: functional
T1 sequence (Q9Y5S8 whole entry): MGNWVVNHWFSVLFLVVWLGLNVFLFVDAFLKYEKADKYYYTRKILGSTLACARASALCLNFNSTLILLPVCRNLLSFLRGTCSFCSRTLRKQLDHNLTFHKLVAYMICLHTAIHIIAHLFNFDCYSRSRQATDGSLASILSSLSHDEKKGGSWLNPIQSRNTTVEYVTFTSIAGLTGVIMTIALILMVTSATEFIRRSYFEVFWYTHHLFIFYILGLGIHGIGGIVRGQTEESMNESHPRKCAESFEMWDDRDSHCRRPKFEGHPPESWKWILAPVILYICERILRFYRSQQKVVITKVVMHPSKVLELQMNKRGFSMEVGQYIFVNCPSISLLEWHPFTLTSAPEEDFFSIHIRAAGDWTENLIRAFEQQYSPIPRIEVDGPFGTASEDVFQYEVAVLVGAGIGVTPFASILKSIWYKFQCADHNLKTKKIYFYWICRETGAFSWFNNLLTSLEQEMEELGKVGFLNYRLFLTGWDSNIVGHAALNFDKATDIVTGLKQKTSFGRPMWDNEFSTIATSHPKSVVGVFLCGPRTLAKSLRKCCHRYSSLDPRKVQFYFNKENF

[3] = target: T2, Mucolipin-3 (Homo sapiens, UniProt Q8TDD5); experiment: Fluorescence counterscreen assay for […] agonists: dose response cell-based high-throughput screening assay to identify agonists of the transient receptor potential channel ML3 (TRPML3). [Related pubchem assays: 1424, 1448 ]; type: functional
T2 sequence (Q8TDD5 whole entry): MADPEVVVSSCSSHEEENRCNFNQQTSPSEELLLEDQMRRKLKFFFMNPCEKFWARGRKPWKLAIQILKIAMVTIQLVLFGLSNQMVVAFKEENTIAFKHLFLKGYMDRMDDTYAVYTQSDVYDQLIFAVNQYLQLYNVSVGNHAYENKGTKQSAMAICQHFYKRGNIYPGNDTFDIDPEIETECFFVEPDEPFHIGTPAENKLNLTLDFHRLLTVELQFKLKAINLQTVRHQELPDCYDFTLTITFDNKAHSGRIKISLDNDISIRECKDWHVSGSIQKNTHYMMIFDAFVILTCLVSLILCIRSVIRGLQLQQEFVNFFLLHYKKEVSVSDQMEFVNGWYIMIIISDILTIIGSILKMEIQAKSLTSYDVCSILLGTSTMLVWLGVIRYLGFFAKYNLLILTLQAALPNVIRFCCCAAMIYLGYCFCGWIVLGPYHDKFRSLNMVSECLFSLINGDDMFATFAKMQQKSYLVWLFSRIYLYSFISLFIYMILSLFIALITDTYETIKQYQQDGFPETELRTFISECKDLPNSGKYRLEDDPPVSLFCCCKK

[4] = target: Induced myeloid leukemia cell differentiation protein Mcl-1 (Homo sapiens, UniProt Q07820); type: functional
[5] = target: Nonstructural protein 1 (Influenza A virus, UniProt Q194T2); type: functional, Influenza A virus (A/California/07/2009(H1N1))
[6] = target: FAD-linked sulfhydryl oxidase ALR (Homo sapiens, UniProt P55789); experiment: ALR-catalysed DTT oxidation blockers – biochemical, H2O2 detection, luminescence, cherry-pick, dose response (AID 493248)
[7] = Luminescent dose response cell-based high throughput screening assay for inhibitors of the Janus kinase 2 mutant JAK2V617F. [Related pubchem assays: 1446 (Primary screen.), 1521 (Confirmation assay.), 1486 (Counter screen.)]; type: functional
[8] = HPDE-C7 pancreatic duct cell viability loss – fluorescence, HTS (AID 430); type: functional, cell-based; conditions: Homo sapiens
[9] = Trypanosoma cruzi growth suppression in host cells – NIH3T3 host cells, beta-gal luminescence, confirmation (AID 2044); type: functional, cell-based;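 further: intracellular parasites grown in NIH/3T3 mouse fibroblasts as host cells; luminescent beta-galactosidase reporter signal from transgenic T. cruzi replicating inside host cells; inhibitors lower the luminescence signal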
[10] = viability loss of HPDE-C7K cells – cell-based, fluorescence, HTS, primary screen (AID 431); type: functional; conditions: Homo sapiens
[11] = NIH3T3 cell viability loss – ATP luminescence, mouse fibroblasts, counter-screen, dose response (AID 2010); type: functional, cell-based;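 further: cells exposed to compound for about 90 hours before reading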
[12] = target: DNA damage-inducible transcript 3 protein (Mus musculus, UniProt P35639); type: functional, Cricetulus griseus
[13] = target: T3, Replicative DNA helicase DnaB (Mycobacterium tuberculosis, UniProt P9WMR3); experiment: DnaB intein splicing inhibitors, dose response, biochemical, cell-free fluorescence (AID 449749); type: functional
T3 sequence (P9WMR3 whole entry): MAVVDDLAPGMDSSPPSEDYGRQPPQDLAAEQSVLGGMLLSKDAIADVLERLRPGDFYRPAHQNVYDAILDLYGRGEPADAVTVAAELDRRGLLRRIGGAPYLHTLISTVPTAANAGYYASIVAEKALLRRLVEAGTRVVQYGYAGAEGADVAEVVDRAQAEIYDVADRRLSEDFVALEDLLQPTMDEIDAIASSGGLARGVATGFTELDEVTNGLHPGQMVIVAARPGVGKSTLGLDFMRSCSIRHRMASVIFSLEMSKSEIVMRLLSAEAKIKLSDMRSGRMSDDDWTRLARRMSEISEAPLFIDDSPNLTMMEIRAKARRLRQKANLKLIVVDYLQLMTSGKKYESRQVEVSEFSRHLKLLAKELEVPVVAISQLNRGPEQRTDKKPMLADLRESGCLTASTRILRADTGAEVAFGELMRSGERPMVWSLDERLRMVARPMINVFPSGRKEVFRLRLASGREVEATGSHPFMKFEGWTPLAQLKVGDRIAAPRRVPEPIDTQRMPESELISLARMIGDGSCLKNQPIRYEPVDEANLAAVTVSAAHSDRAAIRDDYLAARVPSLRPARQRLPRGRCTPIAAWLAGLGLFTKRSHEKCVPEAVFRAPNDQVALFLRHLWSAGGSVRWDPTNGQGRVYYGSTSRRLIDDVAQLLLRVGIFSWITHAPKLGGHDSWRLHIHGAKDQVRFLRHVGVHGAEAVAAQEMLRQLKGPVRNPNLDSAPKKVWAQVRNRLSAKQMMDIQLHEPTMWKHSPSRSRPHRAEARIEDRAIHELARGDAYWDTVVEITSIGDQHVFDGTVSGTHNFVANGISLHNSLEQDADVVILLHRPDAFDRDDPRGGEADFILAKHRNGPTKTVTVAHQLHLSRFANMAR

[14] = target: T4, Protein RecA (Mycobacterium tuberculosis, UniProt P9WHJ3); experiment: Fluorescence Cell-Free Homogeneous Dose Retest to Identify Inhibitors of RecA-Intein Splicing Activity. [Related pubchem assays (depositor defined):AID2097, AID2223, AID489010, AID492950]; type: functional
T4 sequence (P9WHJ3 whole entry): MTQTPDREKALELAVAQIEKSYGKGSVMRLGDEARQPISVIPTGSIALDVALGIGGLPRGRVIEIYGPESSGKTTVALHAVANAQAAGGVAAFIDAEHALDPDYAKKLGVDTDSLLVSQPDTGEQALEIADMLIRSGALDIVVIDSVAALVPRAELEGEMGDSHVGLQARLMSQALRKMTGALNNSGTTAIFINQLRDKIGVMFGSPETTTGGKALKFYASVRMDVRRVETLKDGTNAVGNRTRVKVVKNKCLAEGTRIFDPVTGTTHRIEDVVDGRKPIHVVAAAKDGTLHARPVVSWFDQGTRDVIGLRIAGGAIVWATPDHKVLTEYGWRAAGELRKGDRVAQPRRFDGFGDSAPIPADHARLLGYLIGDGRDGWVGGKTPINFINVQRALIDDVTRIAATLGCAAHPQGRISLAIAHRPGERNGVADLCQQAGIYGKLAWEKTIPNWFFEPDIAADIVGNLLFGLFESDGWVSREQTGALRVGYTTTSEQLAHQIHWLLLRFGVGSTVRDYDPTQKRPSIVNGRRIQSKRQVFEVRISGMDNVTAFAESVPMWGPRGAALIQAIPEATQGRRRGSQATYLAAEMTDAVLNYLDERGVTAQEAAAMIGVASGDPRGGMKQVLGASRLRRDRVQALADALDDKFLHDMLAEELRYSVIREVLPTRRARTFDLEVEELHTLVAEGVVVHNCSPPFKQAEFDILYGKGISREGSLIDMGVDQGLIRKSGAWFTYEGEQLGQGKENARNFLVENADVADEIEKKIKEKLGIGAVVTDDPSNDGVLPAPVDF

[15] = test system: T-cell; experiment: loss of vesicle association with mouse CD8+ T cells – mouse 2C CD8+ T cells, flow cytometry, dose response (AID 485284); type: functional
[16] = target: T5, Coagulation factor XII (Homo sapiens, UniProt P00748); experiment: Factor XIIa Dose Response Confirmation from Single Well HTS. [Related pubchem assays (depositor defined):AID701]; type: functional
T5 sequence (P00748 whole entry): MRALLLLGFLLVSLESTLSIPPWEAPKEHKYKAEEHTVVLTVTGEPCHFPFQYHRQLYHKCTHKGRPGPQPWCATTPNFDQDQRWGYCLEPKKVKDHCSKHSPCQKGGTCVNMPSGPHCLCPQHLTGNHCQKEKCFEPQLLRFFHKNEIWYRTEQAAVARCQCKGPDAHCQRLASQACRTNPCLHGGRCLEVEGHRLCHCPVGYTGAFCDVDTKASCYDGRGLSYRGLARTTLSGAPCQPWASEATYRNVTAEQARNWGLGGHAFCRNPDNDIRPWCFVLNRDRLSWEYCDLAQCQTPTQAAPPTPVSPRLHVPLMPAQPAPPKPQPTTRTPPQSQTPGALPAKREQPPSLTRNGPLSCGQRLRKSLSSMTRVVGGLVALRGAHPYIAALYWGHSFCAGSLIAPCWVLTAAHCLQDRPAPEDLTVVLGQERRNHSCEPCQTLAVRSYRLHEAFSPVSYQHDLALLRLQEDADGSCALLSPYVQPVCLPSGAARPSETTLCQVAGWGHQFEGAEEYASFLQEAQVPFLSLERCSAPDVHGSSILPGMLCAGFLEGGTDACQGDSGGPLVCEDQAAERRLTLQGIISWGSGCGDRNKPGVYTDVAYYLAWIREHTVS

[17] = target: Integrin alpha-4 (Homo sapiens, UniProt P13612); experiment: allosteric modulators of alpha4 integrin VLA-4 – cell-based, LIBS antibody binding, flow cytometry, SAR follow-up (AID 488791); type: functional
[18] = target: Sphingosine 1-phosphate receptor 4 (Homo sapiens, UniProt O95977); experiment: Late-stage fluorescence dose response cell-based assay to identify agonists of the Sphingosine 1-Phosphate Receptor 4 (S1P4): purchased compounds EC50. [Related pubchem assays (depositor defined):AID1509, AID1523, AID1563, AID1686, AID1701, AID1801]; type: functional
[19] = target: Dual specificity protein phosphatase 3 (Homo sapiens, UniProt P51452); experiment: SAR VHR1 Fluorescent Assay for In Vitro dose response studies Set 2. [Related pubchem assays (depositor defined):AID1654, AID1661, AID1878]; type: functional
[20] = target: T6, Dual specificity protein phosphatase 6 (Rattus norvegicus, UniProt Q64346); type: functional;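 further: confirmatory in vitro dose-response testing of MKP-3 inhibition; recombinant His-tagged MKP-3 made in E. coli BL21 with OMFP substrate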
T6 sequence (Q64346 whole entry): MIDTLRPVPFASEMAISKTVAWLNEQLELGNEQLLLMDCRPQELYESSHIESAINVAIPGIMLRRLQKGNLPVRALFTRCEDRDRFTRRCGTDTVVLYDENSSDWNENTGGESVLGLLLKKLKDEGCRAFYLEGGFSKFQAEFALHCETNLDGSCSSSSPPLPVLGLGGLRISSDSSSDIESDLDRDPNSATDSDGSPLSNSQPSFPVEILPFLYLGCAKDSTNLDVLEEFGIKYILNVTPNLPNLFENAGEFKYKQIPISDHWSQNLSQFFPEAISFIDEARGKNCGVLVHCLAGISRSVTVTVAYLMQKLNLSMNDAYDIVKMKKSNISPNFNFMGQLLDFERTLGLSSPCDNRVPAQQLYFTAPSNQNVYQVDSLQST

[21] = target: Mu-type opioid receptor (Homo sapiens, UniProt P35372); experiment: SAR Analysis of Antagonists of the MOR Receptor using an Image-Based Assay - Set 3. [Related pubchem assays (depositor defined):AID1777, AID1785, AID1786, AID1966, AID2133, AID2136, AID2284, AID2285, AID2420]; type: functional
[22] = target: Delta-type opioid receptor (Homo sapiens, UniProt P41143); experiment: SAR Analysis of Antagonists of the DOR Receptor using an Image-Based Assay - Set 3. [Related pubchem assays (depositor defined):AID1777, AID1785]; type: functional;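 further: U2OS cells expressing DOR1 and beta-arrestin GFP stimulated with 100 nM SNC80; imaging of GFP-tagged beta-arrestin moving into spots after receptor activation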
[23] = target: T7, Kappa-type opioid receptor (Homo sapiens, UniProt P41145); experiment: SAR analysis of small molecule antagonists of the kappa opioid receptor via a luminescent beta-arrestin assay - Set 3. [Related pubchem assays (depositor defined):AID1777, AID1778, AID1785, AID1786, AID1966, AID2133, AID2136, AID2285, AID2495]; type: functional
[24] = target: T7, Kappa-type opioid receptor; experiment: SAR analysis of Antagonists of the Kappa Opioid Receptor (KOR) using an Image-Based Assay - Set 3. [Related pubchem assays (depositor defined):AID1777, AID1785]; type: functional

T7 sequence (P41145 whole entry): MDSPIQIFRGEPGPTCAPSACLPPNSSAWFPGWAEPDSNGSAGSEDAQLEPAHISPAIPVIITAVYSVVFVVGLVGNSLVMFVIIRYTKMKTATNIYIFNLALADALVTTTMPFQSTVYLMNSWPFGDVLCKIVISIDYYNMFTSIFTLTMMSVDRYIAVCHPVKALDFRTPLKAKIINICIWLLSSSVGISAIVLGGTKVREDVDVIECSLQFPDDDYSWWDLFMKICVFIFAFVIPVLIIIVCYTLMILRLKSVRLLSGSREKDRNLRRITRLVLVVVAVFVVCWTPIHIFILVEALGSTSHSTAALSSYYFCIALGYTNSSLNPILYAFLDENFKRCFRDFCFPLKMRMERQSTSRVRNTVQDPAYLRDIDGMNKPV
Chain of Induced myeloid leukemia cell differentiation protein Mcl-1 (Q07820 whole entry): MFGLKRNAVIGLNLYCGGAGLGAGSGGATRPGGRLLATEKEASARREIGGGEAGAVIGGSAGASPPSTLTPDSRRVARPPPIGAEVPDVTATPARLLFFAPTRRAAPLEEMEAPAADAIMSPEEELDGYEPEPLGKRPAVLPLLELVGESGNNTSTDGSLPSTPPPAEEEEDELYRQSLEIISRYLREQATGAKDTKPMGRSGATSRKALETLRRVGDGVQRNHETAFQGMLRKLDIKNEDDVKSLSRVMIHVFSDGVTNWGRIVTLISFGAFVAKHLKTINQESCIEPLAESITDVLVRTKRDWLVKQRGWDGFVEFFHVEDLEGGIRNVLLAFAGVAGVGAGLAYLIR
Chain of Delta-type opioid receptor (P41143 whole entry): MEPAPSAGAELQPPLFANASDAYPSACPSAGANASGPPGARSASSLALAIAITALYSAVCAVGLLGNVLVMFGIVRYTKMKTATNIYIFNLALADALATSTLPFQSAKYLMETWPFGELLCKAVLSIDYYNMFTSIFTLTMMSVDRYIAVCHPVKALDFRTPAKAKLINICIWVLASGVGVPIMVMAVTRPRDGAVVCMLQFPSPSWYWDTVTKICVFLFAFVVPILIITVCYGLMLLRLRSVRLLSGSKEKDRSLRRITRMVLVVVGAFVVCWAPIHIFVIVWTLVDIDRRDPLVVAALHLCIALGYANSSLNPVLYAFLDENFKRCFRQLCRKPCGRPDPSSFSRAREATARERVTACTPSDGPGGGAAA
Chain of DNA damage-inducible transcript 3 protein (P35639 whole entry): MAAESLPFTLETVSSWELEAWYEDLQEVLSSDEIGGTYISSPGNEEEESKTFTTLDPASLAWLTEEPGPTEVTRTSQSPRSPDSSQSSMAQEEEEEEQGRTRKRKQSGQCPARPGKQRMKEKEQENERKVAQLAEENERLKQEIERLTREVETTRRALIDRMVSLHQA
Chain of Nonstructural protein 1 (Q194T2 whole entry): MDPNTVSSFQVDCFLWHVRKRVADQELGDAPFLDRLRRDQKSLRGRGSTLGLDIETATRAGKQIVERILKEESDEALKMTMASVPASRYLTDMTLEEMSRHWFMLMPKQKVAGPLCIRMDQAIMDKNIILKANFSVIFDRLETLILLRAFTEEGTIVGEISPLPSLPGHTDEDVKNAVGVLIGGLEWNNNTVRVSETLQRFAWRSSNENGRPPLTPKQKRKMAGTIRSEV
Chain of Mu-type opioid receptor (P35372 whole entry): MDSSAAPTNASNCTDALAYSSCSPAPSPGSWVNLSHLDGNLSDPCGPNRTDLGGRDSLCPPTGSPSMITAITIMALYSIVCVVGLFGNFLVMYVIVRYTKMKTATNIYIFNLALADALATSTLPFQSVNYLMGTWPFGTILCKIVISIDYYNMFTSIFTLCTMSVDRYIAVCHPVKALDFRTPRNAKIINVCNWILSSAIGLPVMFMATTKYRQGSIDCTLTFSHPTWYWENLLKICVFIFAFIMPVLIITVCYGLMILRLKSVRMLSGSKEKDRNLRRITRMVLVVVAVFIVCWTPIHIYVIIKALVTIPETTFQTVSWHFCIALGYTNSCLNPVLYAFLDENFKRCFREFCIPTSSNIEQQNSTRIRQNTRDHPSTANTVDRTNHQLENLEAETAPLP
Chain of Ion channel NompC (Q7T1G6 whole entry): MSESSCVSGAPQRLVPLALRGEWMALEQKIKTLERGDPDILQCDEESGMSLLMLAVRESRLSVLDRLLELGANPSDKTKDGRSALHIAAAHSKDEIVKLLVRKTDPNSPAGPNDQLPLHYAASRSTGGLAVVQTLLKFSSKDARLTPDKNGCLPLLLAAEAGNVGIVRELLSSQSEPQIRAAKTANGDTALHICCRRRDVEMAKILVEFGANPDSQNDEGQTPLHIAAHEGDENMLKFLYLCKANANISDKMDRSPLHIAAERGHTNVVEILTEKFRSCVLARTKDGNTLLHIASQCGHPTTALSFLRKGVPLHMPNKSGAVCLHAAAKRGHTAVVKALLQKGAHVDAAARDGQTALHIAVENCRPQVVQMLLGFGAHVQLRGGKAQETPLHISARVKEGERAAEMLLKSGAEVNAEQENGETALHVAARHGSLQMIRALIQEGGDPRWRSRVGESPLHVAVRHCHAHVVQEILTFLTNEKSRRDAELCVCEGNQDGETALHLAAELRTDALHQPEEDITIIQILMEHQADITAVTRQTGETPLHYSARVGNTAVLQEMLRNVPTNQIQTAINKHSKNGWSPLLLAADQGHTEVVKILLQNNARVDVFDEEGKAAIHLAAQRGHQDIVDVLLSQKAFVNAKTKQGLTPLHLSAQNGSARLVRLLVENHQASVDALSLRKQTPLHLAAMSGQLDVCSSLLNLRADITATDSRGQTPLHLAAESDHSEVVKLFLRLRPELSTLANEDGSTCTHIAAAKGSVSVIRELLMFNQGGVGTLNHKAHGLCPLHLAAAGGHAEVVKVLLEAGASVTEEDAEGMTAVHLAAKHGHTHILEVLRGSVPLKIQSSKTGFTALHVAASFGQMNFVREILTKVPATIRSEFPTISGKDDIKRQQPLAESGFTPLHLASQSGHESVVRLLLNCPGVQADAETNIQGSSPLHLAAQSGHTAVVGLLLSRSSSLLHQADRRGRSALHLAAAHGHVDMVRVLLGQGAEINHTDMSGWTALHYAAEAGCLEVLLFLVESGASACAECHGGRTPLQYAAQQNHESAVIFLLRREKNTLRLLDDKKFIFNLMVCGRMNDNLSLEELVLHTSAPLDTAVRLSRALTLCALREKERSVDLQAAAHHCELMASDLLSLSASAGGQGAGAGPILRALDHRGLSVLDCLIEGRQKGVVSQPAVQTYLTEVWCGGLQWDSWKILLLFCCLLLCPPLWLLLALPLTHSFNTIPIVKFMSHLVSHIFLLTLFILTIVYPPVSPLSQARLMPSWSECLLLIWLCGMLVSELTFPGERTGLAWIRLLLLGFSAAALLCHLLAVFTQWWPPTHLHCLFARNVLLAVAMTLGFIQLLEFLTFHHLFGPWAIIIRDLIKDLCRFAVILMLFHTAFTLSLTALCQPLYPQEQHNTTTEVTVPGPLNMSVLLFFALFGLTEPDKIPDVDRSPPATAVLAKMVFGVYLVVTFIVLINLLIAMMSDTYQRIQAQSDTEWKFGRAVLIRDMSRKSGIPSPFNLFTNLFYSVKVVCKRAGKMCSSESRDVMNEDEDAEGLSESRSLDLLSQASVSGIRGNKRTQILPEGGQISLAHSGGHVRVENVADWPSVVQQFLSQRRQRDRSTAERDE
Chain of Integrin alpha-4 (P13612 whole entry): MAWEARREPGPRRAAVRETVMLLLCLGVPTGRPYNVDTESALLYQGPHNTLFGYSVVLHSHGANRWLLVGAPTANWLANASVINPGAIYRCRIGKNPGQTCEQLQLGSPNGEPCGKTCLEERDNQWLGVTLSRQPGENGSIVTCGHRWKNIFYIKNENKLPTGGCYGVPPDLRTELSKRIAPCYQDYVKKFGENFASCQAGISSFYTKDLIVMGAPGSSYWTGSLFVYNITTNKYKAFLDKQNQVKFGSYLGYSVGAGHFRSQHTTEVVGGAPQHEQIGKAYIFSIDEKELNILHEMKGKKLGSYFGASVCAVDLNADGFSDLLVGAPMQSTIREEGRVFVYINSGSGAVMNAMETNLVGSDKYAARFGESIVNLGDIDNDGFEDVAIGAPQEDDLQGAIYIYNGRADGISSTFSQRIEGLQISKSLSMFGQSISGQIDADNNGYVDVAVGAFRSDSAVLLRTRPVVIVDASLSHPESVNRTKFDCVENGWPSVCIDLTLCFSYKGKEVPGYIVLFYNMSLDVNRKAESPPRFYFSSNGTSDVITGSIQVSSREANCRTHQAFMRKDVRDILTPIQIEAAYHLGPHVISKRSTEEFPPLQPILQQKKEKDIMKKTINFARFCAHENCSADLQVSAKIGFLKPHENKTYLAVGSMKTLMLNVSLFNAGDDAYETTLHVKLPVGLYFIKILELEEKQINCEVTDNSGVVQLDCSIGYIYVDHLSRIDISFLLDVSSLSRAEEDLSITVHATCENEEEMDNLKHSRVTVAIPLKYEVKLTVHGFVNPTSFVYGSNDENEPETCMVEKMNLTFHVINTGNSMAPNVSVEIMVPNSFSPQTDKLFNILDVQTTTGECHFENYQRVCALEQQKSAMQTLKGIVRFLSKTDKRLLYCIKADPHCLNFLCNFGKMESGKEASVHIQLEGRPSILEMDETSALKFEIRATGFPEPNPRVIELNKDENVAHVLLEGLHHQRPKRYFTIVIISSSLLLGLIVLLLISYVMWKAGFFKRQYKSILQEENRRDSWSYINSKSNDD
Chain of Dual specificity protein phosphatase 3 (P51452 whole entry): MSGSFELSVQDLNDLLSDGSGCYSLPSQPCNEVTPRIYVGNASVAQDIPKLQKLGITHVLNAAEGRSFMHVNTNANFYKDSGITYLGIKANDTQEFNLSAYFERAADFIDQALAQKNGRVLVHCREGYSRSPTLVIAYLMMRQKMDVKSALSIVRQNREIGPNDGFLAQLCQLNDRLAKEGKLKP
Chain of FAD-linked sulfhydryl oxidase ALR (P55789 whole entry): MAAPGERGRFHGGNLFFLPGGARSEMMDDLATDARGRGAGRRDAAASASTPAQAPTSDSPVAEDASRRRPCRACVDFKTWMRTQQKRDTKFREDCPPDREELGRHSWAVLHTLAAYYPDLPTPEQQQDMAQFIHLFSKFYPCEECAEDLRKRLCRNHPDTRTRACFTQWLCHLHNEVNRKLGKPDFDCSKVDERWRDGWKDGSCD

CN(C)c1ccc(NC(=O)Nc2ccc3snnc3c2)cc1
EC50 [1]: > 29.9 µM (inactive)
IC50 [2]: 0.187 µM (active)
EC50 [3]: > 29.9 µM (not active)
IC50 [4]: 0.455 µM (active)
IC50 [5]: > 100 µM (active)
AC50 [6]: 0.204 µM (active)

CS(=O)(=O)c1nc(-c2ccco2)cc(C(F)(F)F)n1
IC50 [7]: 0.644 µM (active)
EC50 [8]: 6.49 µM (active)
EC50 [9]: 1.61 µM (active)
EC50 [10]: 5.96 µM (active)
EC50 [11]: 3.73 µM (active)
Absolute IC50 (CHOP) [12]: 10 µM
AC50 [13]: > 380 µM (inactive)
EC50 [14]: > 380 µM (inactive)

COc1ccc([C@H]2CC(=O)C=C(c3ccc(OC)nc3)C2)cc1
EC50 [15]: 3.19 µM (active)

CCc1ccc(C(=O)COC(=O)c2cccs2)cc1
IC50 [16]: > 50 µM (inactive)

O=C1NC(=O)C2(N1)c1ccccc1-c1ccccc12
EC50 [17]: 0.334 µM (active)

Cc1ccc(CNC(=O)C(C)OC(=O)c2c(C)nn(Cc3ccccc3)c2Cl)cc1 (centres undefined)
EC50 [18]: > 50 µM (inactive)

Cc1ccc(C(=O)NC2CCSc3ccccc32)cc1S(N)(=O)=O (centres undefined)
IC50 [19]: > 100 µM (inactive)
IC50 [20]: > 100 µM (inactive)

CCN(CCNC(=O)c1ccc(CNS(=O)(=O)c2ccc(Br)cc2)cc1)Cc1ccccc1
IC50 [21]: 8.46 µM (active)
IC50 [22]: > 32 µM (inactive)
IC50 [23]: 19.4 µM (inactive)
IC50 [24]: 4.82 µM (active)
